Results: patent US11807625B2, “Capsid inhibitors for the prevention of HIV” (Gilead Sciences, Inc., priority 2019, dated 2023)
Several values for one entry are separate records, joined by “and”; a condition that tells them apart may be missing. Identical values can stand only once.

Key:
SHIV = assay: PrEP efficacy in rhesus repeat intrarectal SHIV challenge model, plasma viral load by qRT-PCR; type: in vivo, rhesus macaques; conditions: for Plasma SHIV: rhesus, individual animals
Description: The PrEP efficacy a compound of Formula (Ib) in rhesus was evaluated using a repeat intrarectal (IR) challenge model.
This study also established a correlation between exposure and protection using a single high-dose administration of a compound of Formula (Ib) vs. placebo, followed by multiple weekly IR challenges until infection occured. In this study, multiple challenges overlapped with clinically-relevant drug levels. The supratherapeutic IQs (inhibitory quotients) were assessed to maximize protection and achieve proof-of-concept in case rectal tissue levels were much lower than in plasma. Lower doses of a compound of Formula (Ib), or a pharmaceutically acceptable salt thereof, were assessed to capture more challenges at clinically relevant exposures, reducing the number of IR challenges, and facilitating a drug washout phase. The washout phase lasted for at least 20 weeks. In some embodiments, the washout phase lasted for 20-25 weeks. The washout phase of these studies was important to enable the administered drug concentrations to decline sufficiently below those that were expected to be clinically suppressive in order to confirm that animals that remained aviremic in the study did so because they were protected from infection as opposed to being infected following one or more of the viral challenges but remaining suppressed by prolonged therapeutic concentrations of the long-acting drug in plasma and/or tissue compartments.
FIG. 3 is a schematic of the study using a compound of Formula (Ib) in adult rhesus macaques (1:1 male/female ratio). Eight animals per group were treated with a single dose of placebo control, 150 mg/kg of a compound of Formula (Ib) (“Compound 1b”) or 300 mg/kg of a compound of Formula (Ib) (“Compound 1b”) on week 0 and allowed to wash out over time. All animals were challenged intrarectally with SHIV weekly beginning on week 1 until detectable viremia or up to a maximum of 15 challenges. SHIV challenge titer was increased over time from 10 TCID50 to 100 TCID50 through week 15 as depicted. Animal SHIV infection rate was assessed by weekly plasma viral load monitoring by qRT-PCR through study week 20. The protective efficacy of a compound of Formula (Ib) (“Compound 1b”) was established by comparing to infection rate observed in the placebo control group using the Cox proportional hazards model analysis.
Viral infection was scored one week after each SHIV challenge using a quantitative RT-PCR assay. Infected animals were defined as having a viral load >200 copies per mL plasma and the corresponding plasma viral load values are bolded.
Viral load measurements details: RNA was extracted from plasma using a QIAcube HT and the QIAcube 96 Cador pathogen HT kit (Qiagen). Gag RNA standards were generated using the AmpliCapMax™ T7 High Yield Message Maker Kit (Cell Script) and purified with RNA clean and concentrator kit (Zymo Research). Log dilutions of RNA were included with each assay run. Reverse transcription of both standards and samples was performed using Superscript III VILO (Invitrogen). Quantitative PCR was performed using the Quantstudio 6 Flex system with TaqMan™ Fast Advanced Master Mix (Applied Biosystems). Primer sequences were F-[…] (SEQ ID NO. 1) and R-[…] (SEQ ID NO. 2). The probe sequence was […] (SEQ ID NO. 3), and probe was labeled with FAM and BHQ (Biosearch Technologies). Viral loads were calculated as gag copies per mL.

rhesus plasma protein = assay: Competitive equilibrium dialysis (EQDS) assay, rhesus plasma protein binding; type: in vitro ADME; conditions: EC95 adjusted for rhesus plasma protein binding (competitive equilibrium dialysis)
Description: The mean 95% effective concentration (EC95) of 1.91±0.16 nM for a compound of Formula (Ib) (“Compound Ib”) was determined using a 7-day antiviral assay (p24 ELISA endpoint) in rhesus peripheral blood mononuclear cells (PBMCs) infected with SHIV-162P3. A competitive equilibrium dialysis assay was used to quantify rhesus plasma protein binding to Compound Ib, resulting in an inhibitory quotient (IQ) equal to Compound Ib plasma concentrations divided by a mean rhesus plasma protein-binding-adjusted EC95 (paEC95) value of 30.2±2.5 nM.
Equilibrium dialysis shift (EQDS) assay details: Rhesus plasma protein binding to a compound of Formula (Ib) (“Compound Ib”) was determined by competitive equilibrium dialysis. Rhesus plasma (10%) was spiked with Compound Ib (2 μM) and blank RPMI cell culture medium containing 2% fetal bovine serum (CCM) were placed into opposite sides of assembled dialysis cells, and incubations were performed in triplicate. After a 24-h equilibration period at 37° C., samples were corrected for the matrix effect, quenched, and quantified by liquid chromatography tandem mass spectrometry (LC-MS/MS) with electrospray ionization in positive mode and multiple-reaction monitoring (MRM). The fold change value in 100% rhesus plasma was then calculated using the plasma/CCM ratio after correcting for the sample dilution factor and the percent free fraction in the matrix.

[1] = Plasma concentration vs. time profile of Compound Ib in rhesus after single subcutaneous dose (SHIV challenge study); type: in vivo, rhesus macaques
Description: Mean±s.d. values are shown.
PK analysis details: Rhesus plasma samples were stored frozen at −80° C. and analyzed using high resolution mass spectrometry (HRMS) with electrospray ionization in the positive mode. Quantification was performed using an accurate mass ([M+H]+) of 958.1853 for a compound of Formula (Ib) (“Compound Ib”) and 758.3270 for the internal standard, respectively.

CC(C)(C#Cc1ccc(-c2ccc(Cl)c3c(NS(=O)(=O)C4CC4)nn(CC(F)F)c23)c([C@H](Cc2cc(F)cc(F)c2)NC(=O)Cn2nc(C(F)F)c3c2C(F)(F)[C@@H]2C[C@H]32)n1)S(C)(=O)=O [Compound Ib, N—((S)-1-(3-(4-chloro-3-(cyclopropanesulfonamido)-1-(2,2-difluoroethyl)-1H-indazol-7-yl)-6-(3-methyl-3-(methylsulfonyl)but-1-yn-1-yl)pyridin-2-yl)-2-(3,5-difluorophenyl)ethyl)-2-((3b S,4aR)-3-(difluoromethyl)-5,5-difluoro-3b,4,4a,5-tetrahydro-1H-cyclopropa[3,4]cyclopenta[1,2-c]pyrazol-1-yl)acetamide]
Plasma SHIV (SHIV; 150 mg/kg SC day 0, study week 1, intrarectal SHIV dose 10 x TCID50): <200 copies/mL | Plasma SHIV (SHIV; 150 mg/kg SC day 0, study week 2, intrarectal SHIV dose 10 x TCID50): <200 copies/mL | Plasma SHIV (SHIV; 150 mg/kg SC day 0, study week 3, intrarectal SHIV dose 10 x TCID50): <200 copies/mL | Plasma SHIV (SHIV; 150 mg/kg SC day 0, study week 4, intrarectal SHIV dose 10 x TCID50): <200 copies/mL | Plasma SHIV (SHIV; 150 mg/kg SC day 0, study week 5, intrarectal SHIV dose 10 x TCID50): <200 copies/mL | Plasma SHIV (SHIV; 150 mg/kg SC day 0, study week 6, intrarectal SHIV dose 10 x TCID50): <200 copies/mL | Plasma SHIV (SHIV; 150 mg/kg SC day 0, study week 7, intrarectal SHIV dose 10 x TCID50): <200 copies/mL | Plasma SHIV (SHIV; 150 mg/kg SC day 0, study week 8, intrarectal SHIV dose 10 x TCID50): <200 copies/mL | Plasma SHIV (SHIV; 150 mg/kg SC day 0, study week 9, intrarectal SHIV dose 33 x TCID50): <200 copies/mL | Plasma SHIV (SHIV; 150 mg/kg SC day 0, study week 10, intrarectal SHIV dose 33 x TCID50): <200 copies/mL | Plasma SHIV (SHIV; 300 mg/kg SC day 0, study week 1, intrarectal SHIV dose 10 x TCID50): <200 copies/mL | Plasma SHIV (SHIV; 300 mg/kg SC day 0, study week 2, intrarectal SHIV dose 10 x TCID50): <200 copies/mL | Plasma SHIV (SHIV; 300 mg/kg SC day 0, study week 3, intrarectal SHIV dose 10 x TCID50): <200 copies/mL | Plasma SHIV (SHIV; 300 mg/kg SC day 0, study week 4, intrarectal SHIV dose 10 x TCID50): <200 copies/mL | Plasma SHIV (SHIV; 300 mg/kg SC day 0, study week 5, intrarectal SHIV dose 10 x TCID50): <200 copies/mL | Plasma SHIV (SHIV; 300 mg/kg SC day 0, study week 6, intrarectal SHIV dose 10 x TCID50): <200 copies/mL | Plasma SHIV (SHIV; 300 mg/kg SC day 0, study week 7, intrarectal SHIV dose 10 x TCID50): <200 copies/mL | Plasma SHIV (SHIV; 300 mg/kg SC day 0, study week 8, intrarectal SHIV dose 10 x TCID50): <200 copies/mL | Plasma SHIV (SHIV; 300 mg/kg SC day 0, study week 9, intrarectal SHIV dose 33 x TCID50): <200 copies/mL | Plasma SHIV (SHIV; 300 mg/kg SC day 0, study week 10, intrarectal SHIV dose 33 x TCID50): <200 copies/mL | infection in relation to Compound Ib plasma exposure (SHIV; 150 or 300 mg/kg single SC, weekly intrarectal challenges with escalating SHIV doses, FIGS. 6B, 6C): became infected only after the viral challenges were administered at Compound Ib plasma exposures well below the clinical IQ exposure range of 4 to 9 | mean rhesus plasma protein-binding-adjusted EC95 (paEC95) (rhesus plasma protein): 0.0302 ± 0.0025 µM | Plasma Compound Ib Concentrations ([1]; 150 mg/kg SC day 0, individual animals, study week 1, SHIV dose 10 x TCID50): 3112 nM and 2516 nM and 762 nM and 882 nM | Plasma Compound Ib Concentrations ([1]; 150 mg/kg SC day 0, individual animals, study week 2, SHIV dose 10 x TCID50): 2108 nM and 2027 nM and 1059 nM and 1219 nM | Plasma Compound Ib Concentrations ([1]; 150 mg/kg SC day 0, individual animals, study week 3, SHIV dose 10 x TCID50): 750 nM and 1371 nM and 334 nM and 209 nM | Plasma Compound Ib Concentrations ([1]; 150 mg/kg SC day 0, individual animals, study week 4, SHIV dose 10 x TCID50): 538 nM and 448 nM and 225 nM and 165 nM | Plasma Compound Ib Concentrations ([1]; 150 mg/kg SC day 0, individual animals, study week 5, SHIV dose 10 x TCID50): 333 nM and 449 nM and 141 nM and 113 nM | Plasma Compound Ib Concentrations ([1]; 150 mg/kg SC day 0, individual animals, study week 6, SHIV dose 10 x TCID50): 164 nM and 313 nM and 82 nM and 78 nM | Plasma Compound Ib Concentrations ([1]; 150 mg/kg SC day 0, individual animals, study week 7, SHIV dose 10 x TCID50): 139 nM and 250 nM and 69 nM and 46 nM | Plasma Compound Ib Concentrations ([1]; 150 mg/kg SC day 0, individual animals, study week 8, SHIV dose 10 x TCID50): 118 nM and 160 nM and 80 nM and 56 nM and 82 nM | Plasma Compound Ib Concentrations ([1]; 150 mg/kg SC day 0, individual animals, study week 9, SHIV dose 33 x TCID50): 54 nM and 140 nM and 58 nM and 14 nM | Plasma Compound Ib Concentrations ([1]; 300 mg/kg SC day 0, individual animals, study week 1, SHIV dose 10 x TCID50): 5528 nM and 3174 nM and 2251 nM and 1572 nM and 7818 nM and 2215 nM and 1944 nM | Plasma Compound Ib Concentrations ([1]; 300 mg/kg SC day 0, individual animals, study week 2, SHIV dose 10 x TCID50): 1944 nM and 2466 nM and 1332 nM and 2066 nM and 3983 nM and 1949 nM and 1830 nM | Plasma Compound Ib Concentrations ([1]; 300 mg/kg SC day 0, individual animals, study week 3, SHIV dose 10 x TCID50): 942 nM and 1003 nM and 894 nM and 508 nM and 1654 nM and 632 nM and 742 nM | Plasma Compound Ib Concentrations ([1]; 300 mg/kg SC day 0, individual animals, study week 4, SHIV dose 10 x TCID50): 863 nM and 664 nM and 530 nM and 359 nM and 725 nM and 416 nM and 362 nM | Plasma Compound Ib Concentrations ([1]; 300 mg/kg SC day 0, individual animals, study week 5, SHIV dose 10 x TCID50): 402 nM and 487 nM and 395 nM and 266 nM and 523 nM and 268 nM and 377 nM | Plasma Compound Ib Concentrations ([1]; 300 mg/kg SC day 0, individual animals, study week 6, SHIV dose 10 x TCID50): 370 nM and 282 nM and 382 nM and 161 nM and 242 nM and 273 nM and 350 nM | Plasma Compound Ib Concentrations ([1]; 300 mg/kg SC day 0, individual animals, study week 7, SHIV dose 10 x TCID50): 180 nM (2×) and 261 nM and 339 nM and 132 nM and 158 nM and 307 nM | Plasma Compound Ib Concentrations ([1]; 300 mg/kg SC day 0, individual animals, study week 8, SHIV dose 10 x TCID50): 209 nM and 240 nM and 319 nM and 140 nM and 378 nM and 155 nM and 226 nM | Plasma Compound Ib Concentrations ([1]; 300 mg/kg SC day 0, individual animals, study week 9, SHIV dose 33 x TCID50): 127 nM and 131 nM and 83 nM and 88 nM and 177 nM and 104 nM and 122 nM | concentration at 12 weeks ([1]; both sexes, rhesus monkey, plasma, subcutaneous, 300 mg/kg, 300 mg/kg SC day 0, individual animals, study week 12, SHIV dose 100 x TCID50, read-out: Plasma Compound Ib Concentrations): 83 nM | concentration at 15 weeks ([1]; both sexes, rhesus monkey, plasma, subcutaneous, 300 mg/kg, 300 mg/kg SC day 0, individual animals, study week 15, SHIV dose 100 x TCID50, read-out: Plasma Compound Ib Concentrations): 45 nM
